Laboratory results from patent US5288720A, “Angiotensin II receptor blocking 2,3,6 substituted quinazolinones” (American Cyanamid Company, priority 1993, dated 1994).

Test system: ANGIOTENSIN II VASOPRESSOR RESPONSE
Test: AII Challenge: blockade of angiotensin II vasopressor response in conscious SHR
Assay type: in vivo, rat (Conscious Male Okamoto-Aoki SHR)
Conditions: SHR n=2
Outline: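 Percent blockade is derived from the systolic pressure rise in mmHg, taking each rat's own predose response as 100%. Rats were conscious male Okamoto-Aoki SHR, 16-20 weeks, ~330 g, with aortic and caval cannulas under local procaine. Compound went i.v., i.p. or orally, then angiotensin II challenges (0.05 and 0.1 ug/kg i.v.) at 30-300 min.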

[1] = 3 mg/kg p.o., AII 0.05 mcg/kg IV, 30 min post dose
[2] = 3 mg/kg p.o., AII 0.05 mcg/kg IV, 60 min post dose
[3] = 3 mg/kg p.o., AII 0.05 mcg/kg IV, 90 min post dose
[4] = 3 mg/kg p.o., AII 0.05 mcg/kg IV, 120 min post dose
[5] = 3 mg/kg p.o., AII 0.05 mcg/kg IV, 180 min post dose
[6] = 3 mg/kg p.o., AII 0.1 mcg/kg IV, 30 min post dose
[7] = 3 mg/kg p.o., AII 0.1 mcg/kg IV, 60 min post dose
[8] = 3 mg/kg p.o., AII 0.1 mcg/kg IV, 90 min post dose
[9] = 3 mg/kg p.o., AII 0.1 mcg/kg IV, 120 min post dose
[10] = 3 mg/kg p.o., AII 0.1 mcg/kg IV, 180 min post dose
[11] = 10 mg/kg i.v., AII 0.05 mcg/kg IV, 30 min post dose
[12] = 10 mg/kg i.v., AII 0.05 mcg/kg IV, 60 min post dose
[13] = 10 mg/kg i.v., AII 0.05 mcg/kg IV, 90 min post dose
[14] = 10 mg/kg i.v., AII 0.05 mcg/kg IV, 120 min post dose
[15] = 10 mg/kg i.v., AII 0.05 mcg/kg IV, 180 min post dose
[16] = 10 mg/kg i.v., AII 0.05 mcg/kg IV, 240 min post dose
[17] = 10 mg/kg i.v., AII 0.05 mcg/kg IV, 300 min post dose
[18] = 10 mg/kg i.v., AII 0.1 mcg/kg IV, 30 min post dose
[19] = 10 mg/kg i.v., AII 0.1 mcg/kg IV, 60 min post dose
[20] = 10 mg/kg i.v., AII 0.1 mcg/kg IV, 90 min post dose
[21] = 10 mg/kg i.v., AII 0.1 mcg/kg IV, 120 min post dose
[22] = 10 mg/kg i.v., AII 0.1 mcg/kg IV, 180 min post dose
[23] = 10 mg/kg i.v., AII 0.1 mcg/kg IV, 240 min post dose
[24] = 10 mg/kg i.v., AII 0.1 mcg/kg IV, 300 min post dose
[25] = 3 mg/kg i.v., AII 0.05 mcg/kg IV, 30 min post dose
[26] = 3 mg/kg i.v., AII 0.05 mcg/kg IV, 60 min post dose
[27] = 3 mg/kg i.v., AII 0.05 mcg/kg IV, 90 min post dose
[28] = 3 mg/kg i.v., AII 0.05 mcg/kg IV, 120 min post dose
[29] = 3 mg/kg i.v., AII 0.05 mcg/kg IV, 180 min post dose
[30] = 3 mg/kg i.v., AII 0.05 mcg/kg IV, 240 min post dose
[31] = 3 mg/kg i.v., AII 0.05 mcg/kg IV, 300 min post dose
[32] = 3 mg/kg i.v., AII 0.1 mcg/kg IV, 30 min post dose
[33] = 3 mg/kg i.v., AII 0.1 mcg/kg IV, 60 min post dose
[34] = 3 mg/kg i.v., AII 0.1 mcg/kg IV, 120 min post dose
[35] = 3 mg/kg i.v., AII 0.1 mcg/kg IV, 180 min post dose
[36] = 3 mg/kg i.v., AII 0.1 mcg/kg IV, 240 min post dose
[37] = 3 mg/kg i.v., AII 0.1 mcg/kg IV, 300 min post dose
[38] = 3 mg/kg p.o., AII 0.05 mcg/kg IV, 240 min post dose
[39] = 3 mg/kg p.o., AII 0.1 mcg/kg IV, 240 min post dose

CCCCc1nc2ccc(C(OC)C3CCCN(C)C3=O)cc2c(=O)n1Cc1ccc(-c2ccccc2-c2nn[nH]n2)cc1 (single isomer, unassigned; isomer 1) [Example 42, 2-Butyl-6-methoxy(1-methyl-2-oxo-3-piperidinyl)methyl]-3-[[2' -1H-tetrazol-5-yl)[1,1'-biphenyl]-4-yl]methyl-4(3H)-quinazolinone isomer 1]
% Inhibition of AII vasopressor response [1]: 19% | Average Change (systolic blood pressure response to AII) [1]: 32.5 mmHg | % Inhibition of AII vasopressor response [2]: 19% | Average Change (systolic blood pressure response to AII) [2]: 32.5 mmHg | % Inhibition of AII vasopressor response [3]: 50% | Average Change (systolic blood pressure response to AII) [3]: 20 mmHg | % Inhibition of AII vasopressor response [4]: 19% | Average Change (systolic blood pressure response to AII) [4]: 32.5 mmHg | % Inhibition of AII vasopressor response [5]: -2% | Average Change (systolic blood pressure response to AII) [5]: 41 mmHg | % Inhibition of AII vasopressor response [6]: 22% | Average Change (systolic blood pressure response to AII) [6]: 35 mmHg | % Inhibition of AII vasopressor response [7]: 22% | Average Change (systolic blood pressure response to AII) [7]: 35 mmHg | % Inhibition of AII vasopressor response [8]: 13% | Average Change (systolic blood pressure response to AII) [8]: 39 mmHg | % Inhibition of AII vasopressor response [9]: 11% | Average Change (systolic blood pressure response to AII) [9]: 40 mmHg | % Inhibition of AII vasopressor response [10]: 0% | Average Change (systolic blood pressure response to AII) [10]: 45 mmHg | % Inhibition of AII vasopressor response [11]: 100% | Average Change (systolic blood pressure response to AII) [11]: 0 mmHg | % Inhibition of AII vasopressor response [12]: 86% | Average Change (systolic blood pressure response to AII) [12]: 5 mmHg | % Inhibition of AII vasopressor response [13]: 93% | Average Change (systolic blood pressure response to AII) [13]: 2.5 mmHg | % Inhibition of AII vasopressor response [14]: 93% | Average Change (systolic blood pressure response to AII) [14]: 2.5 mmHg | % Inhibition of AII vasopressor response [15]: 64% | Average Change (systolic blood pressure response to AII) [15]: 12.5 mmHg | % Inhibition of AII vasopressor response [16]: 43% | Average Change (systolic blood pressure response to AII) [16]: 20 mmHg | % Inhibition of AII vasopressor response [17]: 43% | Average Change (systolic blood pressure response to AII) [17]: 20 mmHg | % Inhibition of AII vasopressor response [18]: 100% | Average Change (systolic blood pressure response to AII) [18]: 0 mmHg | % Inhibition of AII vasopressor response [19]: 82% | Average Change (systolic blood pressure response to AII) [19]: 7.5 mmHg | % Inhibition of AII vasopressor response [20]: 76% | Average Change (systolic blood pressure response to AII) [20]: 10 mmHg | % Inhibition of AII vasopressor response [21]: 65% | Average Change (systolic blood pressure response to AII) [21]: 15 mmHg | % Inhibition of AII vasopressor response [22]: 59% | Average Change (systolic blood pressure response to AII) [22]: 17.5 mmHg | % Inhibition of AII vasopressor response [23]: 65% | Average Change (systolic blood pressure response to AII) [23]: 15 mmHg | % Inhibition of AII vasopressor response [24]: 47% | Average Change (systolic blood pressure response to AII) [24]: 22.5 mmHg

CCCCc1nc2ccc(C(O)C3CCN(C)C3=O)cc2c(=O)n1Cc1ccc(-c2ccccc2-c2nn[nH]n2)cc1 (single isomer, unassigned; isomer 2) [Example 33, 2-Butyl-6-[hydroxy(1-methyl-2-oxo-3-pyrrolidinyl)methyl-3-[[2'-(1H-tetrazol-5-yl)[1,1'-biphenyl]-4-yl]methyl]-4(3H)-quinazolinone isomer 2]
% Inhibition of AII vasopressor response [25]: 100% | Average Change (systolic blood pressure response to AII) [25]: 0 mmHg | % Inhibition of AII vasopressor response [26]: 100% | Average Change (systolic blood pressure response to AII) [26]: 0 mmHg | % Inhibition of AII vasopressor response [27]: 100% | Average Change (systolic blood pressure response to AII) [27]: 0 mmHg | % Inhibition of AII vasopressor response [28]: 100% | Average Change (systolic blood pressure response to AII) [28]: 0 mmHg | % Inhibition of AII vasopressor response [29]: 81% | Average Change (systolic blood pressure response to AII) [29]: 7.5 mmHg | % Inhibition of AII vasopressor response [30]: 56% | Average Change (systolic blood pressure response to AII) [30]: 17.5 mmHg | % Inhibition of AII vasopressor response [31]: 44% | Average Change (systolic blood pressure response to AII) [31]: 22.5 mmHg | % Inhibition of AII vasopressor response [32]: 86% | Average Change (systolic blood pressure response to AII) [32]: 7.5 mmHg | % Inhibition of AII vasopressor response [33]: 89% | Average Change (systolic blood pressure response to AII) [33]: 6 mmHg | Average Change (systolic blood pressure response to AII) (3 mg/kg i.v., AII 0.1 mcg/kg IV, 90 min post dose): 7.5 mmHg | % Inhibition of AII vasopressor response [34]: 81% | Average Change (systolic blood pressure response to AII) [34]: 10 mmHg | % Inhibition of AII vasopressor response [35]: 52% | Average Change (systolic blood pressure response to AII) [35]: 25 mmHg | % Inhibition of AII vasopressor response [36]: 33% | Average Change (systolic blood pressure response to AII) [36]: 35 mmHg | % Inhibition of AII vasopressor response [37]: 38% | Average Change (systolic blood pressure response to AII) [37]: 32.5 mmHg | % Inhibition of AII vasopressor response [1]: 80% | Average Change (systolic blood pressure response to AII) [1]: 10 mmHg | % Inhibition of AII vasopressor response [2]: 65% | Average Change (systolic blood pressure response to AII) [2]: 17.5 mmHg | % Inhibition of AII vasopressor response [3]: 50% | Average Change (systolic blood pressure response to AII) [3]: 25 mmHg | % Inhibition of AII vasopressor response [4]: 63% | Average Change (systolic blood pressure response to AII) [4]: 18.5 mmHg | % Inhibition of AII vasopressor response [5]: 35% | Average Change (systolic blood pressure response to AII) [5]: 32.5 mmHg | % Inhibition of AII vasopressor response [38]: 30% | Average Change (systolic blood pressure response to AII) [38]: 35 mmHg | % Inhibition of AII vasopressor response [6]: 63% | Average Change (systolic blood pressure response to AII) [6]: 17.5 mmHg | % Inhibition of AII vasopressor response [7]: 47% | Average Change (systolic blood pressure response to AII) [7]: 25 mmHg | % Inhibition of AII vasopressor response [8]: 37% | Average Change (systolic blood pressure response to AII) [8]: 30 mmHg | % Inhibition of AII vasopressor response [9]: 53% | Average Change (systolic blood pressure response to AII) [9]: 22.5 mmHg | % Inhibition of AII vasopressor response [10]: 21% | Average Change (systolic blood pressure response to AII) [10]: 37.5 mmHg | % Inhibition of AII vasopressor response [39]: 0% | Average Change (systolic blood pressure response to AII) [39]: 47.5 mmHg
